Experiments:
[1] = test system: P. granulosum PRP-006; experiment: Disc diffusion assay (DDA), also supplemented; format: cell-based; conditions: 200 μg per disc
Description: (§4) The propionibacteria were cultured and maintained on Wilkins-Chalgren Anaerobe Medium (agar and broth) at pH 6.0; all cultures were incubated anaerobically at 37° C. for 72 hours.
(§5) A sterile paper disc was impregnated with a sample of the test compound in a suitable solvent and 30 minutes allowed for the solvents to evaporate (where possible). The disc was then placed on an agar plate onto which the test micro-organism had been inoculated. The plate was then incubated under the conditions described above, following which it was examined visually for signs of bacterial growth. […] The diameter of this zone of “inhibition” was measured using a ProtoCOL™ automated zone sizer (Synbiosis, Cambridge, UK).
(§6) For assays using Propionibacterium spp. strains the supplements used in the examples below were lipid (either Tween™ 80 or triolein, both at 1% v/v) and sodium chloride (100 mM).

[2] = test system: P. acnes PRP-026; conditions: P. acnes PRP-026 (resistance MLS); agar dilution
Description: (§1) This is a standard international method for quantitatively assessing the antimicrobial activity of a compound in a solid medium. […] A set amount of these antimicrobial stock solutions was then added to molten agar medium (ca. 55° C.), mixed thoroughly, poured into sterile Petri dishes and allowed to cool/set. The culture medium was as described above.
(§2) A Multipoint™ Inoculator (AQS Manufacturing Ltd, UK) was used to inoculate the plates by spotting the inocula onto the surface of the agar, delivering approximately 1 to 2 μl per spot (yielding 10^5 CFU (colony forming units) per spot).
(§3) The plate(s) were then incubated under the conditions described above, following which they were examined visually for signs of bacterial growth. The MIC value was ascertained when there was a marked reduction in, or total loss of, growth on the test plate at the lowest concentration as compared to that of the growth on the control plate.

[3] = test system: P. granulosum NCTC 11865; conditions: P. granulosum NCTC 11865 (resistance None); agar dilution
Description: as §1, §2, §3

[4] = test system: P. granulosum PRP-005; conditions: P. granulosum PRP-005 (resistance MLSK); agar dilution
Description: as §1, §2, §3

[5] = test system: P. acnes PRP-046; conditions: P. acnes PRP-046 (resistance None); agar dilution
Description: as §1, §2, §3

[6] = test system: P. acnes PRP-039; conditions: P. acnes PRP-039 (resistance Tet/MLS); agar dilution
Description: as §1, §2, §3

[7] = test system: P. acnes PRP-101; conditions: P. acnes PRP-101 (resistance Tet/MLS); agar dilution
Description: as §1, §2, §3

[8] = test system: P. acnes PRP-007; conditions: P. acnes PRP-007 (resistance Clin); agar dilution
Description: as §1, §2, §3

[9] = test system: P. acnes PRP-053; conditions: P. acnes PRP-053 (resistance Tet/MLS); agar dilution
Description: as §1, §2, §3

[10] = test system: P. acnes PRP-008; conditions: P. acnes PRP-008 (resistance Clin); agar dilution
Description: as §1, §2, §3

[11] = test system: P. acnes PRP-002; conditions: P. acnes PRP-002 (resistance Tet/MLS); agar dilution
Description: as §1, §2, §3

[12] = test system: P. granulosum PRP-044; conditions: P. granulosum PRP-044 (resistance MLS); agar dilution
Description: as §1, §2, §3

[13] = test system: P. acnes PRP-010; conditions: P. acnes PRP-010 (resistance MLSK); agar dilution
Description: as §1, §2, §3

[14] = test system: P. granulosum PRP-006; conditions: P. granulosum PRP-006 (resistance MLS); agar dilution
Description: as §1, §2, §3

[15] = test system: P. acnes PRP-102; conditions: P. acnes PRP-102 (resistance Tet/MLS); agar dilution
Description: as §1, §2, §3

[16] = test system: P. acnes PRP-068; conditions: P. acnes PRP-068 (resistance Ery); agar dilution
Description: as §1, §2, §3

[17] = test system: P. acnes PRP-003; conditions: P. acnes PRP-003 (resistance Tet); agar dilution
Description: as §1, §2, §3

[18] = test system: P. granulosum PRP-043; conditions: P. granulosum PRP-043 (resistance MLS); agar dilution
Description: as §1, §2, §3

[19] = test system: P. acnes PRP-023; conditions: P. acnes PRP-023 (resistance MLSK); agar dilution
Description: as §1, §2, §3

[20] = test system: P. granulosum PRP-021; conditions: P. granulosum PRP-021 (resistance MLS); agar dilution
Description: as §1, §2, §3

[21] = test system: P. acnes PRP-059; conditions: P. acnes PRP-059 (resistance MLS); agar dilution
Description: as §1, §2, §3

[22] = test system: P. granulosum PRP-055; conditions: P. granulosum PRP-055 (resistance None); agar dilution
Description: as §1, §2, §3

[23] = test system: P. acnes PRP-017; conditions: P. acnes PRP-017 (resistance MLS); agar dilution
Description: as §1, §2, §3

[24] = test system: P. granulosum PRP-019; conditions: P. granulosum PRP-019 (resistance MLSK); agar dilution
Description: as §1, §2, §3

[25] = test system: P. acnes PRP-004; conditions: P. acnes PRP-004 (resistance Tet); agar dilution
Description: as §1, §2, §3

[26] = test system: P. acnes PRP-068; experiment: Disc diffusion assay (DDA), also supplemented; format: cell-based, Propionibacterium acnes; conditions: 200 μg per disc
Description: as §4, §5, §6

[27] = test system: S. aureus ATCC 29213; experiment: Minimum bactericidal concentration (MBC) assay; format: cell-based, Staphylococcus aureus
Description: (b) Minimum Bactericidal Concentration (MBC) Assay
Following incubation they were examined visually for bacterial growth.

[28] = test system: S. aureus ATCC 29213; experiment: Minimum inhibitory concentration (MIC) assay; format: cell-based, Staphylococcus aureus
From the text: (a) Minimum Inhibitory Concentration (MIC) Assay
The culture media were as described above.
The assays included both negative (culture medium with no micro-organisms) and positive (culture medium plus diluting solvent plus micro-organism) controls.

[29] = test system: P. acnes PRP-101; experiment: Disc diffusion assay (DDA), also supplemented; format: cell-based, Propionibacterium acnes; conditions: 200 μg per disc
Description: as §4, §5, §6

O.O.O.O.O.O=S(=O)([O-])[O-].[Cu+2] [Copper (II) sulphate pentahydrate]
DDA + salt [1]: 37.09 mm
DDA + lipid ([1]; 1% (v/v) triolein): 30.71 mm
DDA ([1]; single replicate): 31.62 mm
DDA ([1]; Table 12 series): 27.91 mm
MIC [2]: 7.8 µg/mL
MIC [3]: 7.8 µg/mL
MIC [4]: 62.5 µg/mL
MIC [5]: 7.8 µg/mL
MIC [6]: 7.8 µg/mL
MIC [7]: 7.8 µg/mL
MIC [8]: 7.8 µg/mL
MIC [9]: 7.8 µg/mL
MIC [10]: 7.8 µg/mL
MIC [11]: 7.8 µg/mL
MIC [12]: 62.5 µg/mL
MIC [13]: 7.8 µg/mL
MIC [14]: 62.5 µg/mL
MIC [15]: 7.8 µg/mL
MIC [16]: 7.8 µg/mL
MIC [17]: 7.8 µg/mL
MIC [18]: 7.8 µg/mL
MIC [19]: 7.8 µg/mL
MIC [20]: 62.5 µg/mL
MIC [21]: 7.8 µg/mL
MIC [22]: 62.5 µg/mL
MIC [23]: 7.8 µg/mL
MIC [24]: 62.5 µg/mL
MIC [25]: 7.8 µg/mL
DDA + salt [26]: 54.73 mm
DDA + lipid ([26]; 1% (v/v) triolein): 49.56 mm
DDA ([26]; single replicate): 52.90 mm
DDA ([26]; Table 12 series): 51.12 mm
MBC [27]: >250 µg/mL
MIC [28]: >250 µg/mL
DDA + salt [29]: 53.21 mm
DDA + lipid ([29]; 1% (v/v) triolein): 55.03 mm
DDA ([29]; single replicate): 45.30 mm
DDA ([29]; Table 12 series): 43.49 mm

Source: patent publication US20090246292A1, “ANTIMICROBIAL FORMULATIONS COMPRISING A QUINONE AND A COPPER SALT” (priority 2006, published 2009)
